Source: publication PMC8470881, “Membrane Interactions of Latarcins: Antimicrobial Peptides from Spider Venom” (International Journal of Molecular Sciences, 2021)
Where “and” joins values, the source holds several entries; their conditions need not be identical. Equal values may be shown once.

Assays:
[1] = ANTS/DPX fluorescence vesicle leakage assay; conditions: vesicle leakage of ANTS/DPX in POPC/POPG (1/1) LUVs, P/L = 1:50, 100 µM lipid, 10 min, 30 °C, pH 7.5
Protocol: The ability of the peptides to induce leakage in large unilamellar vesicles (≈120 nm diameter) of POPC/POPG (1/1) was studied using a fluorescence assay using ANTS/DPX, as described previously.
For the leakage experiments, the buffer in which the vesicles were prepared contained the fluorophore ANTS (12.5 mM), the quencher DPX (45 mM), 50 mM NaCl, and 10 mM HEPES (pH 7.5). Liposomes were prepared by co-dissolving POPC/POPG 1/1 (mol/mol) lipids in CHCl3/MeOH (3/1 v/v), together with 10^−2 mol% Rhod-PE, by which the lipid loss during vesicle preparation (extrusion and gel filtration, see below) could be quantified. The peptide-to-lipid ratio (P/L) is given in mol/mol. The lipid mixture was dried under N2(g) and dried under vacuum for 2–4 h. The obtained thin film was then re-suspended in the buffer, which contained the fluorophore and the quencher, by vigorous vortexing, followed by 10 freeze–thaw cycles. Large unilamellar vesicles (LUV) were obtained by 41-fold extrusion (Avanti Mini Extruder; Avanti Polar Lipids, Alabaster, AL, USA) of the liposomes through a Nuclepore polycarbonate membrane (pore size 100 nm, Whatman-GE Healthcare Europe, Freiburg, Germany) at a temperature 20 °C above the lipid phase transition. […]
The leakage of entrapped ANTS was monitored by fluorescence dequenching of ANTS [18]. Fluorescence measurements were performed in a thermostated cuvette with constant stirring at 30 °C in the elution buffer used for gel filtration on a FluoroMax2 spectrofluorimeter (HORIBA Jobin Yvon, Unterhaching, Germany) by setting the ANTS excitation wavelength to 355 nm and its emission wavelength to 510 nm. Peptide stock solutions in water were prepared, and the peptide concentration was calculated from the weighed amount. […] The fluorescence signal was followed for 10 minutes, and after that time, Triton X-100 was added to completely disrupt the vesicles. The level of 0% leakage corresponded to the fluorescence of the vesicles immediately after their addition, while 100% leakage was the fluorescence value obtained after the addition of Triton X-100.
The synergy of the peptides towards vesicle leakage was investigated by pair-wise combinations of latarcins. The leakage was measured for each peptide alone at P/L = 1/100 and for peptide combinations at P/P/L = 1/1/100. The synergy factor, SF, is calculated according to:SF = L(P1 + P2)/[L(P1) + L(P2)].(1)
Here, L(P1) is the leakage of peptide 1 alone, L(P2) is the leakage of peptide 2 alone, and L(P1 + P2) is the leakage for the mixture of the peptides. […] The SF was determined separately for each batch of samples, and then the individual SF values were averaged.

[2] = Solid-state 15N-NMR (helix alignment in membrane); assay type: physicochemical; conditions: DMPC/DMPG (7/3); for NMR: orientational state of the helix: P/L = 1:100, oriented samples, solid-state 15N-NMR, 308 K
Protocol: While OCD provides a rough picture of the peptide alignment, the helix tilt angle can be measured rather precisely by solid-state NMR using the same type of oriented membrane sample. […] If the peptides are not helical, then the orientation cannot be determined from these ^15N-NMR spectra (which is why CD/OCD need to be performed first), but other information may be available. Oriented NMR samples were prepared at a P/L of 1/100 in DMPC/DMPG (7/3), as for CD/OCD. The ^15N-NMR spectra of all latarcins are summarized in Figure 7, along with the corresponding ^31P-NMR spectra of the phospholipid component. […] This conclusion is supported by the vesicle leakage data above.
Ltc2a, with a chemical shift of 131 ppm, on the other hand, is distinctly tilted in the membrane, as was also observed in the OCD experiments. […] Ltc3a, with a chemical shift of 93 ppm, is tilted only slightly by 10–20°. […] Given that OCD had shown distinct signs of aggregation into β-sheets, we can conclude that Ltc6a binds to the membrane and perturbs the lipid bilayer, but it is not possible to determine the molecular alignment of Ltc6a when it has most likely formed aggregates.
Macroscopically oriented NMR samples were prepared by co-dissolving appropriate amounts of peptides and lipids (in 300 μL methanol, 100 μL CHCl3, and 10–20 μL Milli-Q water) and spreading them onto 23 thin glass plates of dimensions 9 mm × 7.5 mm × 0.08 mm (Marienfeld Laboratory Glassware, Lauda-Königshofen, Germany). The peptide-to-lipid ratio (P/L) is given in mol/mol. The plates were dried in air for 1 h, followed by drying under vacuum overnight. The plates were stacked and placed into a hydration chamber with 96% relative humidity at 48 °C for 18–24 h before wrapping the stack in parafilm and plastic foil for the NMR measurements. All solid-state NMR measurements were carried out on a Bruker Avance 500 MHz spectrometer (Bruker Biospin, Karlsruhe, Germany) at 308 K, as previously reported. The oriented membrane samples were placed in the flat-coil probe such that the lipid bilayer normal was aligned parallel to the magnetic field. ^31P-NMR was used to check the quality of the lipid orientation in the samples, using a Hahn echo sequence with phase cycling. The 90° pulse length was 3.9 µs, the echo time was 30 µs, and 17 kHz ^1H SPINAL64 decoupling was used. ^1H-^15N cross-polarization experiments using a CP-MOIST pulse sequence were performed using a double-tuned probe with a low-E flat-coil resonator (3 mm × 9 mm cross-section), employing a ^1H and ^15N radiofrequency field strength of 65 kHz during the cross-polarization and 25 kHz ^1H SPINAL16 [41] decoupling during acquisition. A mixing time of 500 μs was used, and 10,000 to 30,000 scans were accumulated. The acquisition time was 10 ms, and the recycle time was 3 s. The ^15N chemical shift was referenced using the ^1H-NMR signal of water in the sample.

For H-GLKDKFKSMGEKLKQYIQTWKAKF-NH2 [Ltc4a], the “% Leakage” value [1] was 20% and 22%.
For H-SWKSMAKKLKEYMEKLKQRA-NH2 [Ltc3a], the “NMR: orientational state of the helix” value [2] was “Slight tilt”, the “helix tilt angle away from the flat surface orientation” value ([2]; from 15N chemical shift, P/L 1/100) was 10–20 ° and the “% Leakage” value [1] was 20%.
With “G E TF D K L K E K L K TFYQ K LV E K A ED L K G D L K A K LS-acid [Ltc7]” the “NMR: orientational state of the helix” value [2] was “Surface” and the “% Leakage” value [1] was 50% and 54%.
For “H-GFFGKMKEYFKKFGASFKRRFANLKKRL-NH2 [Ltc5]”, the “NMR: orientational state of the helix” value [2] was “Surface”.
For “H-QAFQTFKPDWNKIRYDAMKMQTSLGQMKKRFNL-OH [Ltc6a]”, the “NMR: orientational state of the helix” value [2] was “Aggregated” and the “% Leakage” value [1] was 50% and 46%.
